Test results from publication PMC7031302, “Design and synthesis of new energy restriction mimetic agents: Potent anti-tumor activities of hybrid motifs of aminothiazoles and coumarins” (Scientific Reports, 2020).
Read-outs that look alike come from different tables or passages of the source.

Key:
Assay type in all cases: cell-based, Human
HCT116 [1] = assay: MTT cell viability, HCT116; details: 72 h, MTT assay, mean ± SD (n = 6), read-out: half-maximal inhibitory concentration (IC50) HCT116
Procedure: The potential cytotoxicity of 24 candidate compounds was initially evaluated at a single concentration level (5 μM). Then a full dose-response curve was plotted for each compound against different colorectal cancer cell lines (HCT116 and HT-29) by MTT assay after 72 h treatments. 4-hydroxycoumarin, OSU-CG5, and OSU-CG12 were used as positive controls. […] Compounds 9b, 9c, 9f, 9i, 11b, and 11c were selected for further studies to determine the full dose-response survival curves using different concentrations (0.1–20 µM) against CRC cell lines and normal fibroblast cell line (F180) at different time points (Fig. 2A–2F and supplementary material Page S63 and S64).
Human colorectal carcinoma cell lines (HCT116) and (HT-29) were obtained from the European Collection of Cell Cultures (ECACC, UK). The cell lines were cultured in Roswell Park Memorial Institute medium (RPMI-1640, Sigma-Aldrich-St. Louis, MO, USA) supplemented with 10% fetal bovine serum (Sigma-Aldrich-St. Louis, MO, USA) and 1% penicillin/streptomycin (Sigma-Aldrich- Louis, MO, USA). F180 cell line (Human Normal Fibroblast), was kindly given by professor Ekkehard Dikomey (University Cancer Center, Hamburg University, Hamburg, Germany) and were cultured in Dulbecco’s Modified Eagle’s medium (DMEM, Sigma-Aldrich-St. Louis, MO, USA) supplemented with 10% fetal bovine serum (Sigma-Aldrich-St. Louis, MO, USA) and 1% penicillin/streptomycin (Sigma-Aldrich- Louis, MO, USA). All cell incubations were done at 37 °C in a humidified atmosphere of 5% CO2.
Cell viability was assessed using, 3-(4,5-dimethylthiazol-2-yl)-2,5-diphenyltetrazolium bromide (MTT) assay as previously described. In summary, cancer cell lines or F180 were seeded in complete medium at the density of 3 × 10^3/well and 5 × 10^3/well respectively in 96 well flat-bottom plates. After 24 h, cells were incubated with the candidate compounds at the indicated concentration for (24, 48 or 72 h). DMSO was used as vehicle control and 4-Hydroxycoumarin was purchased from (Sigma-Aldrich, St. Louis, MO, USA) and Cisplatin from Hospira UK Ltd. At the end of treatment, the media were aspirated from each well and incubated with 200 µL of MTT tetrazolium dye (Sigma-Aldrich, St. Louis, MO, USA) at a final concentration of 0.5 mg/ml for 2 h at 37 °C. The reduced MTT crystals were solubilized in 200 µl/well of DMSO and the absorbance was measured at 570 nm using a microplate reader (Thermo-Scientific, Vantaa, Finland).

[2] = test system: Caspase 3/7 activities in HCT116 cells; assay: Caspase 3/7 activity assay, HCT116; details: HCT116, 72 h
Procedure: Based on this, the energy restriction mediated anticancer activity of the new coumarin tagged aminothiazole derivatives was investigated. The expression levels of PARP, p-Akt, Akt, p-AMPK, AMPK, β-TrCP, LC3A/B-I, LC3A/B-II, caspase-3, cyclin D1, and Bcl-2 proteins were determined by Western blot analysis after 72 h treatment of HT-29 and HCT116 at different concentrations based on the IC50 values of each compound (Fig. 3A,B). […] Moreover, the treatment with 9b and 9f induced caspase 3/7 activation, which was detected by caspase 3/7 activity assay and confirmed by Western blot. The activation of caspases was significant in 9b in both cell lines and significant with 9f in HCT116 cells only and minimal in HT-29 cells (Fig. 3C,D). On the other hand, both 9b and 9f induced dose-dependent proteolytic processing of PARP. […] Besides, the protein expression level of the anti-apoptotic protein, Bcl-2, was reduced in HCT116 upon treatment with both compounds.
Caspase-3/7 activities in HT-29 and HCT116 cells treated with candidate compounds were measured using Caspase-Glo 3/7 assay kit (Promega, Madison, WI, USA) following the manufacturer’s instructions. […] 50 µL of lysate and 50 µL of caspase substrate were added to a white opaque 96-well plate, and the luminescence was measured by Varioskan Flash multimode reader (Thermo-Scientific, Vantaa, Finland)

HCT116 [3] = assay: ROS-Glo H2O2 assay, HCT116; details: HCT116, 6 h incubation
Description: (§1) According to previous studies, ERMAs inhibited glucose utilization in cancer cells[13],[19]. Therefore, we investigated glucose uptake (Fig. 5A) upon treatment with 9b and 9f in HT-29 and HCT116 cells at different concentrations based on the IC50 of each compound. […] This effect is known to result in the accumulation of reactive oxygen species (ROS) and could play a role in glucose deprivation-induced cytotoxicity and oxidative stress in cancer cells. […] The observed increase in ROS levels could lead to oxidative stress and extensive cell death in the absence of NADPH detoxification.
NADPH/NADP+ and ROS concentrations were measured using the NADP/NADPH-Glo Assay Kit (Promega, Madison, WI, USA) and ROS-Glo H2O2 Assay (Promega, Madison, WI, USA), respectively, based on the manufacturer instructions. In NADPH/NADP+ assay, CRC cells were seeded into a 96-well flat-bottomed plate and incubated overnight. On the following day, cells were treated with the testing compound or vehicle for 48 h. At the endpoint of treatment, the media were aspirated and replaced with 60 µl PBS/well, then cells were lysed in 60 µl base solution with 1% dodecyl (trimethyl) ammonium bromide (Sigma-Aldrich-St. Louis, MO, USA). […] Luminescence was measured after 30 minutes using Varioskan Flash multimode reader (Thermo Scientific). […] Luminescence was measured after 20 min incubation at room temperature.

HCT116 [4] = assay: Glucose uptake assay, HCT116; details: HCT116, 16 h treatment, dose-dependent
Description: as §1
CRC cells (1 × 10^4) were seeded into a 96-well plate overnight. Cells were treated with test compounds or vehicle (negative control) glucose-free RPMI-1640 medium for 16 h; then, the cells were incubated with 2 mM 2-DG for 10 minutes. Eventually, glucose uptake of cells was measured using Glucose Uptake-Glo Assay (Promega, Madison, WI, USA) according to the manufacturer’s instructions. Luminescence was measured post 2 h of incubation at room temperature using Varioskan Flash multimode reader (Thermo Scientific). Glucose uptake was normalized to the total protein content in the samples using DC protein assay kit (Bio-Rad, Hercules, CA, USA).

| IC50 (HCT116 [1]) | IC50 (HCT116 [1]; Homo sapiens, HCT-116, 72 h) | SMILES | activation of caspases (caspase 3/7) [2] | generation of hydrogen peroxide (H2O2) and ROS (HCT116 [3]) | glucose uptake (HCT116 [4]) |
| --- | --- | --- | --- | --- | --- |
| 0.53 ± 0.077 µM | 0.38 µM | Cc1cc(=O)oc2cc(Nc3nc(-c4ccc(Br)cc4)cs3)ccc12 [Compound 9b, 7-(4-(4-Bromophenyl)thiazol-2-ylamino)-4-methyl-2H-chromen-2-one] | significant | significantly increased | inhibited significantly |
| 2.56 ± 0.553 µM | 3.96 µM | Cc1cc(=O)oc2cc(Nc3nc(-c4cccc([N+](=O)[O-])c4)cs3)ccc12 [Compound 9f, 4-Methyl-7-(4-(3-Nitrophenyl)thiazol-2-ylamino)-2H-chromen-2-one] | significant | significantly increased | inhibited significantly |
